Experimental findings from BindingDB's records for doi:10.1016/j.bmcl.2019.126806 (Temple University, 2020) are described below.

This test has as its target T1, Lysosomal acid glucosylceramidase (Homo sapiens, UniProt P04062).
T1 sequence (P04062 whole entry): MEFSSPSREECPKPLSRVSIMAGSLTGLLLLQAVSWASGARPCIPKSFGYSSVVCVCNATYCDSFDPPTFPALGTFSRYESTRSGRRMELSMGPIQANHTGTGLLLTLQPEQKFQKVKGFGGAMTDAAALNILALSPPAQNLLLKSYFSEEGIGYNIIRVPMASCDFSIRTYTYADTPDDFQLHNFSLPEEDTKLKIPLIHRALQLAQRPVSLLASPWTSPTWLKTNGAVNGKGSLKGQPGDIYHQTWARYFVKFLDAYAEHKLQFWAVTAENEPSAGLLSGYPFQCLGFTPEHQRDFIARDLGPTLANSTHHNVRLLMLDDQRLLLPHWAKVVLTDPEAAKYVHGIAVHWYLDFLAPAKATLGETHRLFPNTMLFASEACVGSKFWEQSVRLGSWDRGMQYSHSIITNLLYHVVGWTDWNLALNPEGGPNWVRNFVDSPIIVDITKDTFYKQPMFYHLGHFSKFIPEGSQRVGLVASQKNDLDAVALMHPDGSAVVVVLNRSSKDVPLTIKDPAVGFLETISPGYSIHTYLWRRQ
As to the kind of experiment: Chaperone activity at GCase in wild-type human fibroblasts assessed as increase in GPN-induced reduction of calcium release using Fluo-8AM based fluorescence assay.
Take `CC(C)CC(C(=O)c1ccc(OCCN(C)C)cc1)c1ccccc1C(C)C` (centres undefined): the concentration giving a half-maximal response (EC50) was found to be 1100 nM. Then `C/C=C/c1ccccc1C(CCCC)C(=O)c1ccc(OCCN(C)C)cc1` (centres undefined), with 1100 nM; and `CCCCC(C(=O)c1ccc(OCCN(C)C)cc1)c1ccccc1C(C)C` (centres undefined), with 700 nM.

On to `CC(C)CC(C(=O)c1ccc(OCCN(C)C)cc1)c1ccccc1C1CC1` (centres undefined), for which the concentration for a half-maximal effect (EC50) worked out at 1100 nM.

A word on the EC50: it is the concentration at which the effect is half-maximal.
